{"source": "patent US20070254956A1", "about": "“Medicament for Therapeutic and/or Preventive Treatment of Restenosis or Reocclusion After Vascular Recanalization Operation” (priority 2003, published 2007)", "system": "proliferation of neointima", "assay": "Test for inhibition of proliferation of neointima in a mouse model of femoral arterial angiopathy", "format": "in vivo", "settings": "male C57BL/6 mouse, 1 mg/kg/day intraperitoneally for 10 days", "method": "As an angiopathy model resulting from a vascular recanalization operation, a treatment was carried out in which 0.015 inch spring wires were implanted into both […] of 20-25 g male C57BL/6 mouse under anesthesia, and placed for 1 minute to extend the arteries. After the operation, the compound represented by the formula (I) was administered 1 mg/kg/day intraperitoneally for 10 days. Blood vessels were extirpated 4 weeks after the operation and histopathologically examined. Influences between the drug administered group and non-administered group on the cross-section ratio of neointima and tunica media (neointima/tunica media) were compared."}
{"smiles": "O=C(Nc1cc(C(F)(F)F)cc(C(F)(F)F)c1)c1cc(Cl)ccc1O", "note": "[compound (I)]", "values": [{"measurement": "cross-section ratio of neointima and tunica media (neointima/tunica media)", "setting": "wire-injured femoral arteries, vessels examined 4 weeks after operation, non-administered group 2.01±0.15", "result": "1.01±0.27"}, {"measurement": "inhibition of the proliferation of neointima after the angiopathy", "setting": "4 weeks after operation", "result": "strongly inhibited the proliferation of neointima"}]}
